According to article PMC5218480 (PLoS ONE, 2017):

Test system: MV-4-11 cells
Test: Gene expression microarray analysis (Affymetrix PrimeView) and GSEA
Type: cell-based, human
Parameters: RFU PODN (11730768_x_at) / Fold change /veh PODN (11730768_x_at) / RFU LINC00158 (11744669_a_at) / Fold change /veh LINC00158 (11744669_a_at) / RFU DUSP10 (11751237_a_at) / Fold change /veh DUSP10 (11751237_a_at) / RFU ID3 (11757404_x_at) / Fold change /veh ID3 (11757404_x_at) / RFU PLEKHG5 (11737974_s_at) / Fold change /veh PLEKHG5 (11737974_s_at) / RFU LRRC4B (11730491_at) / Fold change /veh LRRC4B (11730491_at) / RFU GIMAP4 (11747438_a_at) / Fold change /veh GIMAP4 (11747438_a_at) / RFU KRT8 (11758183_x_at) / Fold change /veh KRT8 (11758183_x_at) / RFU CNN1 (11734310_a_at) / Fold change /veh CNN1 (11734310_a_at) / RFU VPS37D (11726825_at) / Fold change /veh VPS37D (11726825_at) / RFU C10orf10 (11716522_x_at) / Fold change /veh C10orf10 (11716522_x_at) / RFU KIR2DL2 /// KIR2DL4 /// KIR2DL5A /// KIR2DL5B /// KIR2DS1 /// KIR2DS2 /// KIR2DS3 /// KIR2DS4 /// KIR3DL3 /// KIR3DL3 /// KIR3DS1 (11738374_at) / Fold change /veh KIR2DL2 /// KIR2DL4 /// KIR2DL5A /// KIR2DL5B /// KIR2DS1 /// KIR2DS2 /// KIR2DS3 /// KIR2DS4 /// KIR3DL3 /// KIR3DL3 /// KIR3DS1 (11738374_at) / RFU C1QL1 (11718748_at) / Fold change /veh C1QL1 (11718748_at) / RFU TMPRSS4 (11747572_a_at) / Fold change /veh TMPRSS4 (11747572_a_at) / RFU HAMP (11756126_x_at) / Fold change /veh HAMP (11756126_x_at) / RFU RNFT2 (11725882_a_at) / Fold change /veh RNFT2 (11725882_a_at) / RFU NR4A2 (11747474_a_at) / Fold change /veh NR4A2 (11747474_a_at) / RFU ABCC12 (11746883_a_at) / Fold change /veh ABCC12 (11746883_a_at) / RFU TMEM136 (11760407_x_at) / Fold change /veh TMEM136 (11760407_x_at) / RFU CLDN22 /// WWC2 (11732394_at) / Fold change /veh CLDN22 /// WWC2 (11732394_at) / RFU HLA-DPB1 (11760878_x_at) / Fold change /veh HLA-DPB1 (11760878_x_at) / RFU SPINT1 (11716480_a_at) / Fold change /veh SPINT1 (11716480_a_at) / RFU GAP43 (11754022_s_at) / Fold change /veh GAP43 (11754022_s_at) / RFU A4GNT (11735810_at) / Fold change /veh A4GNT (11735810_at) / RFU PRB3 (11715151_x_at) / Fold change /veh PRB3 (11715151_x_at) / RFU TUBB4B (11761932_at) / Fold change /veh TUBB4B (11761932_at) / RFU CAPN14 (11732068_a_at) / Fold change /veh CAPN14 (11732068_a_at) / RFU TMCC2 (11721928_a_at) / Fold change /veh TMCC2 (11721928_a_at) / RFU IRGQ (11745062_a_at) / Fold change /veh IRGQ (11745062_a_at) / RFU FAM174B (11720279_a_at) / Fold change /veh FAM174B (11720279_a_at) / RFU TMPRSS4 (11748680_a_at) / Fold change /veh TMPRSS4 (11748680_a_at) / RFU FAM212B (11763350_a_at) / Fold change /veh FAM212B (11763350_a_at) / RFU PLEKHG5 (11743358_a_at) / Fold change /veh PLEKHG5 (11743358_a_at) / RFU ZSCAN30 (11745921_a_at) / Fold change /veh ZSCAN30 (11745921_a_at) / RFU CMKLR1 (11741424_a_at) / Fold change /veh CMKLR1 (11741424_a_at) / RFU LOC101060620 /// MAPK8IP1 (11723275_at) / Fold change /veh LOC101060620 /// MAPK8IP1 (11723275_at) / RFU SPTSSB (11747773_x_at) / Fold change /veh SPTSSB (11747773_x_at) / RFU PRSS12 (11739890_at) / Fold change /veh PRSS12 (11739890_at) / RFU BIN1 (11741810_x_at) / Fold change /veh BIN1 (11741810_x_at) / RFU WNT11 (11732464_a_at) / Fold change /veh WNT11 (11732464_a_at) / RFU C10orf10 (11716521_a_at) / Fold change /veh C10orf10 (11716521_a_at) / RFU C5orf56 (11738089_at) / Fold change /veh C5orf56 (11738089_at) / RFU CYB561 (11721691_x_at) / Fold change /veh CYB561 (11721691_x_at) / RFU ANKRD19P (11752326_a_at) / Fold change /veh ANKRD19P (11752326_a_at) / RFU OR2T12 /// OR2T33 /// OR2T8 (11738714_s_at) / Fold change /veh OR2T12 /// OR2T33 /// OR2T8 (11738714_s_at) / RFU VCAN (11748164_a_at) / Fold change /veh VCAN (11748164_a_at) / RFU JSRP1 (11732532_at) / Fold change /veh JSRP1 (11732532_at) / RFU KRTAP10-11 (11738290_x_at) / Fold change /veh KRTAP10-11 (11738290_x_at) / RFU MYO3A (11730013_a_at) / Fold change /veh MYO3A (11730013_a_at) / RFU EBF3 (11725865_a_at) / Fold change /veh EBF3 (11725865_a_at) / RFU CAMK2N1 (11719241_x_at) / Fold change /veh CAMK2N1 (11719241_x_at) / RFU C5orf56 (11738088_a_at) / Fold change /veh C5orf56 (11738088_a_at) / RFU OLFML3 (11715873_a_at) / Fold change /veh OLFML3 (11715873_a_at) / RFU LOC100653217 /// NTM (11731650_a_at) / Fold change /veh LOC100653217 /// NTM (11731650_a_at) / RFU MAPK11 (11762145_a_at) / Fold change /veh MAPK11 (11762145_a_at) / RFU FIZ1 (11724087_x_at) / Fold change /veh FIZ1 (11724087_x_at) / RFU OASL (11726364_x_at) / Fold change /veh OASL (11726364_x_at) / RFU SOX15 (11748057_x_at) / Fold change /veh SOX15 (11748057_x_at) / RFU CD79A (11719716_a_at) / Fold change /veh CD79A (11719716_a_at) / RFU HIST1H1D (11736915_at) / Fold change /veh HIST1H1D (11736915_at) / RFU CASKIN2 (11723855_a_at) / Fold change /veh CASKIN2 (11723855_a_at) / RFU LOC730098 (11760151_x_at) / Fold change /veh LOC730098 (11760151_x_at) / RFU OR4N2 (11742367_at) / Fold change /veh OR4N2 (11742367_at) / RFU PRRT2 (11749266_a_at) / Fold change /veh PRRT2 (11749266_a_at) / RFU SNX32 (11753110_a_at) / Fold change /veh SNX32 (11753110_a_at) / RFU CDHR5 (11726645_a_at) / Fold change /veh CDHR5 (11726645_a_at) / RFU RCAN1 (11760418_a_at) / Fold change /veh RCAN1 (11760418_a_at) / RFU FAM167A (11723789_a_at) / Fold change /veh FAM167A (11723789_a_at) / RFU FAM26E (11764081_at) / Fold change /veh FAM26E (11764081_at) / RFU ISYNA1 (11749810_s_at) / Fold change /veh ISYNA1 (11749810_s_at) / RFU ACY1 (11761880_at) / Fold change /veh ACY1 (11761880_at) / RFU 11764098_at / Fold change /veh 11764098_at / RFU SAMD14 (11745864_x_at) / Fold change /veh SAMD14 (11745864_x_at) / RFU NPB (11741838_a_at) / Fold change /veh NPB (11741838_a_at) / RFU TMPRSS6 (11731388_a_at) / Fold change /veh TMPRSS6 (11731388_a_at) / RFU KRTAP10-2 (11738614_at) / Fold change /veh KRTAP10-2 (11738614_at) / RFU ARHGAP8 /// PRR5-ARHGAP8 (11727945_x_at) / Fold change /veh ARHGAP8 /// PRR5-ARHGAP8 (11727945_x_at) / RFU KRTAP5-7 /// NADSYN1 (11734609_at) / Fold change /veh KRTAP5-7 /// NADSYN1 (11734609_at) / RFU RASL12 (11751679_a_at) / Fold change /veh RASL12 (11751679_a_at) / RFU CDKN2B (11736163_a_at) / Fold change /veh CDKN2B (11736163_a_at) / RFU PRF1 (11729649_at) / Fold change /veh PRF1 (11729649_at) / RFU, ZNF638 /// ZNF638-IT1 / Fold change vs veh, ZNF638 /// ZNF638-IT1 / RFU, PANK3 / Fold change vs veh, PANK3 / RFU, SH3YL1 / Fold change vs veh, SH3YL1 / RFU, ZEB2 / Fold change vs veh, ZEB2 / RFU, NRIP1 / Fold change vs veh, NRIP1 / RFU, PTTG1IP / Fold change vs veh, PTTG1IP / RFU, CAPN2 / Fold change vs veh, CAPN2 / RFU, MED14 / Fold change vs veh, MED14 / RFU, SNORA58 / Fold change vs veh, SNORA58 / RFU, C1orf63 / Fold change vs veh, C1orf63 / RFU, LRRFIP1 / Fold change vs veh, LRRFIP1 / RFU, NDUFAF7 / Fold change vs veh, NDUFAF7 / RFU, SLC12A2 / Fold change vs veh, SLC12A2 / RFU, IBTK / Fold change vs veh, IBTK / RFU, ESF1 / Fold change vs veh, ESF1 / Fold change vs veh, TMEM50B / RFU, TAOK1 / Fold change vs veh, TAOK1 / RFU, ACBD3 / Fold change vs veh, ACBD3 / RFU, TMA16 / Fold change vs veh, TMA16 / RFU, RWDD3 / Fold change vs veh, RWDD3 / RFU, BCAT1 / Fold change vs veh, BCAT1 / RFU, EDEM3 / Fold change vs veh, EDEM3 / RFU, TMEM33 / Fold change vs veh, TMEM33 / RFU, WDR75 / Fold change vs veh, WDR75 / RFU, AHCTF1 / Fold change vs veh, AHCTF1 / RFU, TFRC / Fold change vs veh, TFRC / RFU, ZDHHC17 / Fold change vs veh, ZDHHC17 / RFU, NOM1 / Fold change vs veh, NOM1 / RFU, ARL8B / Fold change vs veh, ARL8B / RFU, ZBTB11 / Fold change vs veh, ZBTB11 / RFU, TAMM41 / Fold change vs veh, TAMM41 / RFU, KIAA1704 /// LOC100996395 / Fold change vs veh, KIAA1704 /// LOC100996395 / RFU, ING1 / Fold change vs veh, ING1 / RFU, TRMT61B / Fold change vs veh, TRMT61B / RFU, FUBP3 / Fold change vs veh, FUBP3 / RFU, TP53 / Fold change vs veh, TP53 / RFU, TNKS2 / Fold change vs veh, TNKS2 / RFU, ZFP14 / Fold change vs veh, ZFP14 / RFU, ACTR2 / Fold change vs veh, ACTR2 / RFU, PPP3R1 / Fold change vs veh, PPP3R1 / RFU, PIK3R1 / Fold change vs veh, PIK3R1 / RFU, HNRNPA1 / Fold change vs veh, HNRNPA1 / RFU, RNF170 / Fold change vs veh, RNF170 / RFU, ZNF28 / Fold change vs veh, ZNF28 / RFU, RNGTT / Fold change vs veh, RNGTT / RFU, OGT / Fold change vs veh, OGT / RFU, BRD1 / Fold change vs veh, BRD1 / RFU, MARS / Fold change vs veh, MARS / RFU, ZNF655 / Fold change vs veh, ZNF655 / RFU, FAHD1 / Fold change vs veh, FAHD1 / RFU, BDP1 / Fold change vs veh, BDP1 / RFU, LRRCC1 / Fold change vs veh, LRRCC1 / RFU, ARID1A / Fold change vs veh, ARID1A / RFU, ZNF146 / Fold change vs veh, ZNF146 / RFU, ZNF330 / Fold change vs veh, ZNF330 / RFU, GPN3 / Fold change vs veh, GPN3 / RFU, C9orf123 / Fold change vs veh, C9orf123 / RFU, N4BP2L2 / Fold change vs veh, N4BP2L2 / RFU, ARFIP1 / Fold change vs veh, ARFIP1 / RFU, FAM179B / Fold change vs veh, FAM179B / RFU, BCL10 / Fold change vs veh, BCL10 / RFU, UHRF1BP1L / Fold change vs veh, UHRF1BP1L / RFU, BET1 / Fold change vs veh, BET1 / RFU, CNOT2 / Fold change vs veh, CNOT2 / RFU, ZNF268 / Fold change vs veh, ZNF268 / Fold change vs veh, ZNF507 / RFU, DGCR2 / Fold change vs veh, DGCR2 / RFU, WDSUB1 / Fold change vs veh, WDSUB1 / Fold change vs veh, HSP90B1 /// MIR3652 / RFU, ADSS / Fold change vs veh, ADSS / RFU, GK / Fold change vs veh, GK / RFU, ZNF148 / Fold change vs veh, ZNF148 / RFU, TAF9 / Fold change vs veh, TAF9 / RFU, SLC1A5 / Fold change vs veh, SLC1A5 / RFU, SLMO2 / Fold change vs veh, SLMO2 / RFU, ABCC4 / Fold change vs veh, ABCC4 / RFU, LOC101060439 /// RAP1B / Fold change vs veh, LOC101060439 /// RAP1B / RFU, RFX7 / Fold change vs veh, RFX7 / RFU, GTPBP10 / Fold change vs veh, GTPBP10 / RFU, CNEP1R1 / Fold change vs veh, CNEP1R1 / RFU, BIVM-ERCC5 /// ERCC5 / Fold change vs veh, BIVM-ERCC5 /// ERCC5 / RFU, ILF3 / Fold change vs veh, ILF3 / RFU 11762660_at / Fold change /veh 11762660_at / RFU VCAN (11757783_s_at) / Fold change /veh VCAN (11757783_s_at) / RFU DDX43 (11728927_at) / Fold change /veh DDX43 (11728927_at) / RFU KRT8 (11758188_x_at) / Fold change /veh KRT8 (11758188_x_at) / RFU NKD1 (11759106_at) / Fold change /veh NKD1 (11759106_at) / RFU SRD5A1 (11742802_a_at) / Fold change /veh SRD5A1 (11742802_a_at) / RFU TPSAB1 /// TPSB2 (11721975_s_at) / Fold change /veh TPSAB1 /// TPSB2 (11721975_s_at) / RFU GSTM3 (11746129_a_at) / Fold change /veh GSTM3 (11746129_a_at) / RFU IL23R (11737362_x_at) / Fold change /veh IL23R (11737362_x_at) / RFU TMEM51 (11727254_a_at) / Fold change /veh TMEM51 (11727254_a_at) / RFU PIWIL2 (11732686_x_at) / Fold change /veh PIWIL2 (11732686_x_at) / RFU ORM1 (11744905_x_at) / Fold change /veh ORM1 (11744905_x_at) / RFU CCDC152 (11743942_at) / Fold change /veh CCDC152 (11743942_at) / RFU ECM1 (11717891_a_at) / Fold change /veh ECM1 (11717891_a_at) / RFU IL23R (11748794_a_at) / Fold change /veh IL23R (11748794_a_at) / RFU TNFAIP8L3 (11732012_x_at) / Fold change /veh TNFAIP8L3 (11732012_x_at) / RFU MBOAT4 (11741988_at) / Fold change /veh MBOAT4 (11741988_at) / RFU 11764193_at / Fold change /veh 11764193_at / RFU TMEM53 (11763286_at) / Fold change /veh TMEM53 (11763286_at) / RFU MAGEB2 (11727129_at) / Fold change /veh MAGEB2 (11727129_at) / RFU TMEM200A (11744735_a_at) / Fold change /veh TMEM200A (11744735_a_at) / RFU CCDC152 (11751479_a_at) / Fold change /veh CCDC152 (11751479_a_at) / RFU FAM211A (11726209_a_at) / Fold change /veh FAM211A (11726209_a_at) / RFU RGS16 (11746705_a_at) / Fold change /veh RGS16 (11746705_a_at) / RFU VCAN (11755009_s_at) / Fold change /veh VCAN (11755009_s_at) / RFU RHOB (11743442_s_at) / Fold change /veh RHOB (11743442_s_at) / RFU RGS16 (11720943_a_at) / Fold change /veh RGS16 (11720943_a_at) / RFU RGS16 (11720944_at) / Fold change /veh RGS16 (11720944_at) / RFU, VPS4B / Fold change vs veh, VPS4B / RFU, CREB1 / Fold change vs veh, CREB1 / RFU, DNAJC13 / Fold change vs veh, DNAJC13 / RFU, GNAQ / Fold change vs veh, GNAQ / RFU, CDK5R1 / Fold change vs veh, CDK5R1 / RFU, ZRANB3 / Fold change vs veh, ZRANB3 / RFU, CUL4A / Fold change vs veh, CUL4A / RFU, CCNY / Fold change vs veh, CCNY / RFU, UFL1 / Fold change vs veh, UFL1 / RFU, COG3 / Fold change vs veh, COG3 / RFU, DIAPH2 / Fold change vs veh, DIAPH2 / RFU, SKA2 / Fold change vs veh, SKA2 / RFU, AFF3 / Fold change vs veh, AFF3 / RFU, LMF1 / Fold change vs veh, LMF1 / RFU, IPO11 / Fold change vs veh, IPO11 / RFU, DFFB / Fold change vs veh, DFFB / RFU, FOXP1 / Fold change vs veh, FOXP1 / RFU, CARD8 / Fold change vs veh, CARD8 / RFU, STRN3 / Fold change vs veh, STRN3 / RFU, ADK / Fold change vs veh, ADK / RFU, RASSF2 / Fold change vs veh, RASSF2 / RFU, WIPF1 / Fold change vs veh, WIPF1 / RFU, LARP1B / Fold change vs veh, LARP1B / RFU, RASA1 / Fold change vs veh, RASA1 / RFU, RB1 / Fold change vs veh, RB1 / RFU, PPFIA1 / Fold change vs veh, PPFIA1 / RFU, MAT2A / Fold change vs veh, MAT2A / RFU, CCT5 / Fold change vs veh, CCT5 / RFU, WDR92 / Fold change vs veh, WDR92 / RFU, CUX1 / Fold change vs veh, CUX1 / RFU, TTC7A / Fold change vs veh, TTC7A / RFU, TMEM135 / Fold change vs veh, TMEM135 / RFU, DEPTOR / Fold change vs veh, DEPTOR / RFU, CPM / Fold change vs veh, CPM / RFU, DNAJB6 / Fold change vs veh, DNAJB6 / RFU, CACNA2D3 / Fold change vs veh, CACNA2D3 / RFU, DTX4 / Fold change vs veh, DTX4 / RFU, TFCP2 / Fold change vs veh, TFCP2 / RFU, GMCL1 /// GMCL1P1 / Fold change vs veh, GMCL1 /// GMCL1P1 / RFU, AEBP2 / Fold change vs veh, AEBP2 / RFU, SNHG1 /// SNORD22 /// SNORD25 /// SNORD26 /// SNORD27 /// SNORD28 /// SNORD29 /// SNORD31 / Fold change vs veh, SNHG1 /// SNORD22 /// SNORD25 /// SNORD26 /// SNORD27 /// SNORD28 /// SNORD29 /// SNORD31 / Fold change (Aza/veh), C12orf56 (ProbeSet 11735607_a_at) / Fold change (ACY-1035/veh), C12orf56 (ProbeSet 11735607_a_at) / Fold change (Aza/veh), FGFR1OP (ProbeSet 11751329_s_at) / Fold change (ACY-1035/veh), FGFR1OP (ProbeSet 11751329_s_at) / Fold change (Aza/veh), VPS36 (ProbeSet 11739960_a_at) / Fold change (ACY-1035/veh), VPS36 (ProbeSet 11739960_a_at) / RFU SYPL1 (11715823_x_at) / Fold change /veh SYPL1 (11715823_x_at) / RFU IGFBP7 (11715501_s_at) / Fold change /veh IGFBP7 (11715501_s_at) / RFU REEP3 (11722064_at) / Fold change /veh REEP3 (11722064_at) / RFU IGLL1 (11728026_x_at) / Fold change /veh IGLL1 (11728026_x_at): dose or concentration left out as unconfirmed
Conditions: ProbeSet 11757113_a_at; LIST D

Nc1ccc(-c2cccs2)cc1NC(=O)c1ccc2c(c1)cc(C1CC1)n2CCN1CCOCC1 [ACY-1035]
Fold change vs veh, SNHG1 /// SNORD22 /// SNORD25 /// SNORD26 /// SNORD27 /// SNORD28 /// SNORD29 /// SNORD31: 0.87
